Entries after “also recorded” stand apart in the source; their conditions may differ.
Tests used:
Format in all cases: cell-based, human
[1] = test system: monocytes; conditions: activated whole blood with BFA
Procedure: The cytokine expression of monocytes was evaluated in some of the same samples. Monocytes were identified based on their scatter characteristics, their bright lin 1 FITC, anti-HLA-DR PerCP and CD11c APC staining. […] Intracellular protein secretion is evaluated as PE mean fluorescence intensity (MFI).

[2] = test system: CD11c^+CD123^low DCs; conditions: CD11c+ subset; whole blood; activator 4 hours at 37° C. with Brefeldin A
Procedure: (§1) Venous blood of normal donors was collected in sodium heparin […]® tubes. For activation with LPS, the blood was stimulated with 1 μg/mL LPS. […] PMA was then added at 5 ng/mL and ionomycin at 1 μg/mL. For activation by CD40 crosslinking, 50 μL CD40-coated polystyrene beads was added to 1 mL whole blood. All samples were incubated for four hours at 37° C. in a humidified incubator with 5% CO2.
(§2) For detection of intracellular cytokines, activation, as above, was performed in the presence additionally of Brefeldin A (BFA) at 10 μg/mL. Control (resting) aliquots were incubated with BFA alone.
(§3) Cell preparation was done at room temperature (RT), and all incubation steps were performed in the dark.
(§4) For staining, 1 mL of sample (activated or resting blood control) was added to a cocktail of dendritic cell-distinguishing antibodies (20 μL lineage cocktail 1-FITC, 10 μL HLA-DR PerCP, 5 μL CD11c APC; reagent volumes per 50 μL blood) in a 50 mL polypropylene centrifuge tube. The blood was incubated in the presence of the fluorophore-conjugated antibodies for 15 min. After incubation, 40 mL FACS® Lysing Solution was added and the tube incubated for a further 10 min. The cells were then collected by centrifugation for 10 min at 500×g, and the pellet gently broken off for further processing. Next, 10 mL FACS® Permeabilizing Solution was added and the cells were incubated for 10 min. […]

[3] = test system: CD11c^−CD123^+ DCs; conditions: CD11c−CD123+ subset; whole blood
Procedure: as §1, §2, §3, §4

[4] = test system: CD11c^− DCs; conditions: CD11c− subset; whole blood; activator 4 hours at 37° C. without Brefeldin A
Procedure: as §1
For detection of changes in surface antigen expression, samples were incubated with DC activator, as above, without the further addition of BFA. Control (resting) aliquots were incubated with neither BFA nor activator.
Cell preparation was done at room temperature (RT) and all incubation steps were performed in the dark.
For staining, 150 μL of sample (activated or resting blood control) was added to a cocktail of monoclonal antibodies in a staining tube.
After incubation, 3 mL of FACS® Lysing Solution was added and the tube incubated for 10 min at RT. The lysed cells were centrifuged for 5 min at 500×g and subsequently washed with 3 mL buffer (DPBS 1×, 0.5% fetal calf serum). The cell pellet was resuspended in 250 μL buffer and immediately acquired on a flow cytometer. If data acquisition was delayed, the cells were maintained at 4° C. for up to one hour.
The samples as described above were acquired on a FACSCalibur™ dual laser flow cytometer (BDIS, San Jose, Calif.). […]

[5] = test system: CD11c^+ DCs; assay: Cytokine kinetic assay in LPS activated CD11c+ DCs; conditions: 1 μg/ml LPS, time course 0 to 8 hours
Procedure: The time course of LPS incubation was 0 to 8 hours. Intracellular cytokine and CD80 expression is measured as PE mean fluorescence intensity (MFI).
Whole blood was stimulated with 1 μg/ml LPS and incubated in polypropylene tubes (12×75 mm) at 37° C. in a humidified atmosphere containing 5% CO2. Aliquots were processed, essentially as set forth in Examples 1 and 2 above, every hour from 0 to 8 hrs post stimulation. One hour prior to each sample harvest, BFA was added at 10 μg/mL.

Lipopolysaccharide [LPS]
cytokine expression of monocytes compared with CD11c+ DCs (PE MFI) [1]: higher levels; also recorded: much more potently
IL-12 expression (intracellular, MFI) [2]: trace levels
production of any of the tested cytokines [3]: absence of detectable cytokine production; also recorded: fail to respond
CD80 change in surface expression (ratio of MFI activated versus control) [4]: upregulation; also recorded: strongest signal
CD86 change in surface expression (ratio of MFI activated versus control) [4]: upregulation
order of cytokine production (kinetics of the response) [5]: TNFα is produced first, followed by IL-1β and IL-6
time of activation after which CD80 is intensely upregulated [5]: about 4 hours

— US7351546B2, “Flow cytometric, whole blood dendritic cell immune function assay” (Becton, Dickinson and Company, priority 1998, dated 2008)
